34 molecules from patent US9040529B2 (Vichem Chemie Kutató Kft., priority 2009, dated 2015) can be followed below.

Each structure is given as a SMILES string.

This assay concerns the target T1, human CDK9/CyclinT kinase complex (Homo sapiens, UniProt P50750).
T1 construct: purchased Proqinase 0371-0345-1
Nature of the assay: In vitro CDK9/CyclinT assay (IMAP fluorescence polarization kinase assay). To be noted: for IC50: 5 nM CDK9/CyclinT, 400 nM TAMRA-Rbtide, 12 μM ATP, 1 hour at room temperature, read-out: CDK9 inhibitory range. It is filed as biochemical. Here is the method:
In Vitro CDK9/CyclinT Assay
The activity of the compounds described in the present invention can be determined by the following kinase assay, which measures the phosphorylation of a fluorescently-labeled peptide by human CDK9/CyclinT kinase complex by fluorescent polarization using a commercially available IMAP Screening Express Assay Kit (Molecular devices).
CDK9 kinase assays were performed in low protein binding 384-well plates (Corning 3676). Test compounds were diluted in 100% DMSO to 5 mM stock concentration, then further dilutions were made in H2O or 100% DMSO to desirable concentrations.
Each reaction consisted of 5 nM enzyme: CDK9/CyclinT (Proqinase cat#0371-0345-1), 400 nM TAMRA-Rbtide (synthetic 15-mer peptide derived from human retinoblastoma tumor suppressor protein labelled with TAMRA dye, Genecust Europe), 12 μM ATP (=Kmapp, Sigma-Aldrich) and kinase buffer: 20 mM MOPS pH 7 (Sigma-Aldrich), 1 mM DTT (Sigma-Aldrich), 10 mM MgCl2 (Sigma-Aldrich), 0.01% Tween 20 (Sigma-Aldrich).
For each reaction, 4 or 6 μl containing TAMRA-Rbtide, ATP and kianse buffer were combined with 2 μl diluted compound in H2O or 0.028 μl compound in 100% DMSO. The kinase reaction was started by the addition of 2 μl diluted enzyme. The reaction was allowed to run for 1 hours at room temperature. The reaction was stopped by adding 15 μl IMAP beads (1:400 beads in progressive (100% buffer A) 1× buffer). After an additional 1 hours, fluorescent polarization (Ex: 550-10 nm, Em: 590-10 nm, Dich: 561 nm) was measured using an Analyst GT (Molecular devices).
In general terms: Polarisation of emitted light reports the rotation of a fluorescent probe.

T1 sequence (P50750 whole entry): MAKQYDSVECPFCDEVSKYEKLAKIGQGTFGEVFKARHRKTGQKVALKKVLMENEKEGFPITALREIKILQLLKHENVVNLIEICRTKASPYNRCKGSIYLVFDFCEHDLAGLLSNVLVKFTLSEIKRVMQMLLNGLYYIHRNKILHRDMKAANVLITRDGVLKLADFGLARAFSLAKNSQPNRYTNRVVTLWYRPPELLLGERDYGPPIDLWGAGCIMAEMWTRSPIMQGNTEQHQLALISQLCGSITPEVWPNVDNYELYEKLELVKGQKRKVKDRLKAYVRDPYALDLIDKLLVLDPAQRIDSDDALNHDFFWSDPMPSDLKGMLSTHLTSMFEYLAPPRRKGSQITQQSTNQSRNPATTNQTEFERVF
T1 sequence (O60563 whole entry partner): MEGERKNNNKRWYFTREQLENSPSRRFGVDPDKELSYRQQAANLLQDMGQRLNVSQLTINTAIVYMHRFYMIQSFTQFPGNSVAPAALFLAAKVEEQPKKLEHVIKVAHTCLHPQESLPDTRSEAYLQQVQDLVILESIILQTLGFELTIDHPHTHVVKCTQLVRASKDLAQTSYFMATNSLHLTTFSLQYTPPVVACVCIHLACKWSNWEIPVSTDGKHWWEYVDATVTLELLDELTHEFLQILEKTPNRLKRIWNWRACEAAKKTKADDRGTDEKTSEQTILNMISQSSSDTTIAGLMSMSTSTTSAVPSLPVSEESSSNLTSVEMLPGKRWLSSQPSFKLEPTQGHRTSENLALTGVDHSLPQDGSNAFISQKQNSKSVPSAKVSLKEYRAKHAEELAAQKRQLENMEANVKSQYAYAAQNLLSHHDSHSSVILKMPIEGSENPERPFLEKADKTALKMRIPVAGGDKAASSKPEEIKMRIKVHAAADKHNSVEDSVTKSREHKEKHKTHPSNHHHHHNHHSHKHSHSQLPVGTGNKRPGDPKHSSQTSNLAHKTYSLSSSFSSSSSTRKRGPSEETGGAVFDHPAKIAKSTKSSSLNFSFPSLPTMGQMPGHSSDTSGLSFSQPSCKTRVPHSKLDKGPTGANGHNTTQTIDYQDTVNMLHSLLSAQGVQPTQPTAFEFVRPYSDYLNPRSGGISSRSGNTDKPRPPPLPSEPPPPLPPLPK

In the case of `CS(=O)(=O)NCc1cccc(Nc2cc(-c3cccc4c3OCO4)ncn2)c1` [Example 27, N-[3-(6-Benzo[1,3]dioxol-4-yl-pyrimidin-4-ylamino)-benzyl]-methanesulfonamide], the IC50 was < 1000 nM.
Take `COc1ccccc1-c1cc(Nc2ccc(Cn3cnc4ccccc43)cc2)ncn1` [Example 87, (4-Benzoimidazol-1-ylmethyl-phenyl)-[6-(2-methoxy-phenyl)-pyrimidin-4-yl]-amine]: the IC50 was < 1000 nM.
On to `CS(=O)(=O)NCc1cccc(Nc2cc(-c3ccccc3Oc3ccccc3)ncn2)c1` [Example 4, N-{3-[6-(2-Phenoxy-phenyl)-pyrimidin-4-ylamino]-benzyl}-methanesulfonamide], for which the IC50 is < 1000 nM.
Turning to `CS(=O)(=O)NCc1ccc(Nc2cc(-c3ccccc3F)ncn2)cc1` [Example 44, N-{4-[6-(2-Fluoro-phenyl)-pyrimidin-4-ylamino]-benzyl}-methanesulfonamide], the IC50 was < 10000 nM.
For the molecule `CS(=O)(=O)NCc1cccc(Nc2cc(Cl)ncn2)c1` [Example 1, N-[3-(6-Chloro-pyrimidin-4-ylamino)-benzyl]-methanesulfonamide], the IC50 was > 10000 nM.
Turning to `CS(=O)(=O)NCc1cccc(Nc2cc(-c3ccccc3OCc3ccc(F)cc3)ncn2)c1` [Example 10, N-(3-{6-[2-(4-Fluoro-benzyloxy)-phenyl]-pyrimidin-4-ylamino}-benzyl)-methanesulfonamide], the IC50 was < 1000 nM.
Take `Clc1cc(Nc2cccc(Cn3c(CN4CCOCC4)nc4ccccc43)c2)ncn1` [Example 92, (6-Chloro-pyrimidin-4-yl)-[3-(2-morpholin-4-ylmethyl-benzoimidazol-1-ylmethyl)-phenyl]amine]: the IC50 is > 10000 nM.
On to `CS(=O)(=O)NCc1cccc(Nc2cc(-c3ccccc3OCc3ccccc3)ncn2)c1` [Example 2, N-{3-[6-(2-Benzyloxy-phenyl)-pyrimidin-4-ylamino]-benzyl}-methanesulfonamide], for which the IC50 is < 1000 nM.
As to `CS(=O)(=O)NCc1cccc(Nc2cc(-c3ccccc3F)ncn2)c1` [Example 16, N-{3-[6-(2-Fluoro-phenyl)-pyrimidin-4-ylamino]-benzyl}-methanesulfonamide], the IC50 was < 10000 nM.
Take `CC(C)Oc1cc(F)ccc1-c1cc(Nc2cccc(CNS(C)(=O)=O)c2)ncn1` [Example 14, N-{3-[6-(4-Fluoro-2-isopropoxy-phenyl)-pyrimidin-4-ylamino]-benzyl}-methanesulfonamide]: the IC50 is < 1000 nM.
With `CCCOc1ccccc1-c1cc(Nc2cccc(CNS(C)(=O)=O)c2)ncn1` [Example 31, N-{3-[6-(2-Propoxy-phenyl)-pyrimidin-4-ylamino]-benzyl}-methanesulfonamide], the IC50 is < 1000 nM.
For `COc1cc(F)ccc1-c1cc(Nc2cccc(Cn3cnc4ccccc43)c2)ncn1` [Example 65, (3-Benzoimidazol-1-ylmethyl-phenyl)-[6-(4-fluoro-2-methoxy-phenyl)-pyrimidin-4-yl]-amine], the CDK9 inhibitory effect result was “nanomolar or low nanomolar range” and the IC50 was < 100 nM.
As for `CCCOc1ccccc1-c1cc(Nc2ccc(CNS(C)(=O)=O)cc2)ncn1` [Example 53, N-{4-[6-(2-Propoxy-phenyl)-pyrimidin-4-ylamino]-benzyl}-methanesulfonamide], the CDK9 inhibitory effect entry was “nanomolar or low nanomolar range” and the IC50 is < 100 nM.
As for `Clc1cc(Nc2cccc(CNc3nc4ccccc4[nH]3)c2)ncn1` [Example 59, (1H-Benzoimidazol-2-yl)-[3-(6-chloro-pyrimidin-4-ylamino)-benzyl]-amine], the IC50 was > 10000 nM.
As to `CS(=O)(=O)NCc1ccc(Nc2cc(-c3ccccc3)ncn2)cc1` [Example 45, N-[4-(6-Phenyl-pyrimidin-4-ylamino)-benzyl]-methanesulfonamide], the IC50 is < 10000 nM.
Regarding `COc1ccc(F)cc1-c1cc(Nc2ccc(CNS(C)(=O)=O)cc2)ncn1` [Example 38, N-{4-[6-(5-Fluoro-2-methoxy-phenyl)-pyrimidin-4-ylamino]-benzyl}-methanesulfonamide], the IC50 is < 1000 nM.
As for `CS(=O)(=O)NCc1ccc(Nc2cc(-c3ccccc3OCc3ccccc3)ncn2)cc1` [Example 35, N-{4-[6-(2-Benzyloxy-phenyl)-pyrimidin-4-ylamino]-benzyl}-methanesulfonamide], the CDK9 inhibitory effect entry is listed as “nanomolar or low nanomolar range” and the IC50 was < 100 nM.
For `CS(=O)(=O)NCc1cccc(Nc2cc(-c3cccc(N)c3)ncn2)c1` [Example 22, N-{3-[6-(3-Amino-phenyl)-pyrimidin-4-ylamino]-benzyl}-methanesulfonamide], the IC50 was < 1000 nM.
With `CS(=O)(=O)NCc1cccc(Nc2cc(-c3cn[nH]c3)ncn2)c1` [Example 32, N-{3-[6-(1H-Pyrazol-4-yl)-pyrimidin-4-ylamino]-benzyl}-methanesulfonamide], the IC50 is < 1000 nM.
Same read-out and setting: to `CSc1ccccc1-c1cc(Nc2cccc(CNS(C)(=O)=O)c2)ncn1` [Example 28, N-{3-[6-(2-Methylsulfanyl-phenyl)-pyrimidin-4-ylamino]-benzyl}-methanesulfonamide] belongs < 1000 nM.
On to `CCOc1ccccc1-c1cc(Nc2ccc(CNS(C)(=O)=O)cc2)ncn1` [Example 37, N-{4-[6-(2-Ethoxy-phenyl)-pyrimidin-4-ylamino]-benzyl}-methanesulfonamide], for which the CDK9 inhibitory effect entry is “nanomolar or low nanomolar range” and the IC50 was < 100 nM.
As for `Oc1ccc(-c2cc(Nc3ccc(Cn4cnc5ccccc54)cc3)ncn2)cc1` [Example 89, 4-[6-(4-Benzoimidazol-1-ylmethyl-phenylamino)-pyrimidin-4-yl]-phenol], the IC50 is < 1000 nM.
On the same count and under the same terms, the result for `COc1cc(F)ccc1-c1cc(Nc2cccc(CNc3nc4ccccc4[nH]3)c2)ncn1` [Example 61, (1H-Benzoimidazol-2-yl)-{3-[6-(4-fluoro-2-methoxy-phenyl)-pyrimidin-4-ylamino]-benzyl}-amine] reads < 1000 nM; that for `COc1ccccc1-c1cc(Nc2cccc(CNS(=O)(=O)c3ccc(F)cc3)c2)ncn1` [Example 72, 4-Fluoro-N-{3-[6-(2-methoxy-phenyl)-pyrimidin-4-ylamino]-benzyl}-benzenesulfonamide], < 1000 nM.
`COc1cc(F)ccc1-c1cc(Nc2ccc(CNS(C)(=O)=O)cc2)ncn1` [Example 39, N-{4-[6-(4-Fluoro-2-methoxy-phenyl)-pyrimidin-4-ylamino]-benzyl}-methanesulfonamide]: the CDK9 inhibitory effect entry is on record as “nanomolar or low nanomolar range” and the IC50 is < 100 nM.
`COc1cccc(F)c1-c1cc(Nc2cccc(Cn3cnc4ccccc43)c2)ncn1` [Example 79, (3-Benzoimidazol-1-ylmethyl-phenyl)-[6-(2-fluoro-6-methoxy-phenyl)-pyrimidin-4-yl]-amine]: the IC50 is < 100 nM.
Still for that read-out and setting: the result for `CC(C)Oc1cc(F)ccc1-c1cc(Nc2cccc(Cn3cnc4ccccc43)c2)ncn1` [Example 81, (3-Benzoimidazol-1-ylmethyl-phenyl)-[6-(4-fluoro-2-isopropoxy-phenyl)-pyrimidin-4-yl]-amine] reads < 100 nM; that for `COc1cccc(-c2cc(Nc3cccc(CNS(C)(=O)=O)c3)ncn2)c1OC` [Example 23, N-{3-[6-(2,3-Dimethoxy-phenyl)-pyrimidin-4-ylamino]-benzyl}-methanesulfonamide], < 1000 nM.
Consider `CC(C)Oc1ccccc1-c1cc(Nc2ccc(CNS(C)(=O)=O)cc2)ncn1` [Example 56, N-{4-[6-(2-Isopropoxy-phenyl)-pyrimidin-4-ylamino]-benzyl}-methanesulfonamide], for which the CDK9 inhibitory effect entry is on record as “nanomolar or low nanomolar range” and the IC50 is < 100 nM.
For the molecule `COc1ccccc1-c1cc(Nc2cccc(CNS(=O)(=O)Cc3ccccc3)c2)ncn1` [Example 74, N-{3-[6-(2-Methoxy-phenyl)-pyrimidin-4-ylamino]-benzyl}-C-phenyl-methanesulfonamide], the IC50 is < 1000 nM.
On the same count and under the same terms, the result for `COc1ccc(F)cc1-c1cc(Nc2cccc(CNc3nc4ccccc4[nH]3)c2)ncn1` [Example 62, (1H-Benzoimidazol-2-yl)-{3-[6-(5-fluoro-2-methoxy-phenyl)-pyrimidin-4-ylamino]-benzyl}-amine] reads < 1000 nM; that for `C=C(c1ccccc1)c1cc(Nc2cccc(CNS(C)(=O)=O)c2)ncn1` [Example 3], < 10000 nM; that for `CS(=O)(=O)NCc1ccc(Nc2cc(-c3ccccc3C(F)(F)F)ncn2)cc1` [Example 43, N-{4-[6-(2-Trifluoromethyl-phenyl)-pyrimidin-4-ylamino]-benzyl}-methanesulfonamide], > 10000 nM.
Take `COc1ccc(F)cc1-c1cc(Nc2cccc(CNS(C)(=O)=O)c2)ncn1` [Example 9, N-{3-[6-(5-Fluoro-2-methoxy-phenyl)-pyrimidin-4-ylamino]-benzyl}-methanesulfonamide]: the IC50 was < 1000 nM.
